Reference: article PMC3859622, “Functional Characterization of ECP-Heparin Interaction: A Novel Molecular Model” (PLoS ONE, 2013)
Where a chain is given by its changes, count along the chain named. “And” between values parts separate entries of the source, which are not always exact repeats. Equal entries are not always repeated. Where two headings read alike, the source gives them in different places.

How the values were obtained:
[1] = system: EDN Q40A; parameters: method as in earlier work; details: calculated, Hep6 docked to EDN Q40A; cited from earlier work
[2] = system: EDN Q34A; parameters: method as in earlier work; details: calculated, Hep6 docked to EDN Q34A; cited from earlier work
[3] = target: T1, ECP H64A (Homo sapiens, UniProt P12724, H91A); assay: ITC of heparins with ECP H64A; type: binding; details: ITC 25 °C, PBS pH 7.4
T1 sequence (P12724 28-160 H91A): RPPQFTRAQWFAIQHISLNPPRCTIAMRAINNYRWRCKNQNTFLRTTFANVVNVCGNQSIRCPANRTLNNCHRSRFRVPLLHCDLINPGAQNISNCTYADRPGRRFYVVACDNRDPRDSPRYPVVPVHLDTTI
Procedure: (§1) Thermodynamic analysis of wtECP and mutant ECPs to bind heparin was performed using a MicroCal iTC200 calorimeter (MicroCal, Northampton, USA) [38]. ECP was dialyzed against PBS before use and the same buffer was used to prepare heparin solutions. All experiments were performed at 25 °C, using ECP (20 μM, as protein) and heparin (200 μM). The protein solution was placed in a calorimeter cell and the heparin solution was loaded into the syringe injector. In individual titration, auto-controlled microsyringe injected 2 μL heparin solution into the protein solution with an interval of 120 sec. The integrated heat change was analyzed by means of non-linear regression using the MicroCal Origin software, and enthalpy change (ΔH), dissociation constant (K D), and stoichiometry value (N = X/M) were obtained from a single sigmoidal titration curve [39]. […] The effect of dilution of the heparin solution in the titration cell was removed by subtracting calorimetric data for a blank titration, which consisted of titration of heparin solution into PBS.

[4] = system: EDN W10A; parameters: method as in earlier work; details: calculated, Hep6 docked to EDN W10A; cited from earlier work
[5] = target: T2, ECP R105A (Homo sapiens, UniProt P12724, R132A); assay: ITC of heparins with ECP R105A; type: binding; details: ITC 25 °C, PBS pH 7.4
T2 sequence (P12724 28-160 R132A): T1 sequence (P12724 28-160 H91A) with A64H, R105A
Procedure: as §1

[6] = target: T3, wtECP (Homo sapiens, UniProt P12724); assay: ITC of heparins with wtECP; type: binding; details: ITC 25 °C, PBS pH 7.4
T3 construct: His6 (C); made in house; host or cells: Escherichia coli BL21 (DE3) CodonPlus
T3 sequence (P12724 28-160): T1 sequence (P12724 28-160 H91A) with A64H
Procedure: as §1

[7] = system: EDN Q14A; parameters: method as in earlier work; details: calculated, Hep6 docked to EDN Q14A; cited from earlier work
[8] = system: EDN K38A; parameters: method as in earlier work; details: calculated, Hep6 docked to EDN K38A; cited from earlier work
[9] = system: EDN R36A; parameters: method as in earlier work; details: calculated, Hep6 docked to EDN R36A; cited from earlier work
[10] = system: EDN H129A; parameters: method as in earlier work; details: calculated, Hep6 docked to EDN H129A; cited from earlier work
[11] = target: T4, ECP Q40A (Homo sapiens, UniProt P12724, Q67A); assay: ITC of heparins with ECP Q40A; type: binding; details: ITC 25 °C, PBS pH 7.4
T4 sequence (P12724 28-160 Q67A): T1 sequence (P12724 28-160 H91A) with Q40A, A64H
Procedure: as §1

[12] = system: EDN; details: calculated, cited from earlier work
[13] = target: T5, ECP Q40A/H64A (Homo sapiens, UniProt P12724, H91A/Q67A); assay: ITC of heparins with ECP Q40A/H64A; type: binding; details: ITC 25 °C, PBS pH 7.4
T5 sequence (P12724 28-160 Q67A/H91A): T1 sequence (P12724 28-160 H91A) with Q40A
Procedure: as §1

[14] = system: EDN H15A; parameters: method as in earlier work; details: calculated, Hep6 docked to EDN H15A; cited from earlier work
[15] = system: EDN L130A; parameters: method as in earlier work; details: calculated, Hep6 docked to EDN L130A; cited from earlier work
[16] = system: EDN N39A; parameters: method as in earlier work; details: calculated, Hep6 docked to EDN N39A; cited from earlier work
[17] = system: EDN R132A; parameters: method as in earlier work; details: calculated, Hep6 docked to EDN R132A; cited from earlier work
[18] = system: EDN W7A; parameters: method as in earlier work; details: calculated, Hep6 docked to EDN W7A; cited from earlier work

Q: Which Binding energy [1] does the source give for `O=C(O)[C@@H]1O[C@@H](O[C@H]2[C@H](O)[C@@H](NS(=O)(=O)O)[C@@H](O[C@H]3[C@H](O)[C@@H](OS(=O)(=O)O)C(O)O[C@H]3C(=O)O)O[C@@H]2COS(=O)(=O)O)[C@H](OS(=O)(=O)O)[C@@H](O)[C@@H]1O[C@H]1O[C@H](COS(=O)(=O)O)[C@@H](O[C@@H]2O[C@@H](C(=O)O)[C@@H](O[C@H]3O[C@H](COS(=O)(=O)O)[C@@H](O)[C@H](O)[C@H]3NS(=O)(=O)O)[C@H](O)[C@H]2OS(=O)(=O)O)[C@H](O)[C@H]1NS(=O)(=O)O` (stereo partly drawn) [Hep6, [GlcNS(6S)-IdoA(2S)]3] here?
A: -8.50 kcal/mol

Q: What about the Binding energy [2] of the same compound?
A: -8.88 kcal/mol

Q: What about the “N (sites)” value [3] of the same compound?
A: 2.74 ± 0.3 sites

Q: What about the TΔS [3] of the same compound?
A: 2 ± 0.3 kcal/mol

Q: And the ΔG [3]?
A: -7.7 kcal/mol and -7.7 ± 0.4 kcal/mol

Q: And the ΔH [3]?
A: -5.8 ± 0.4 kcal/mol

Q: What about the Binding energy [4] of the same compound?
A: -8.88 kcal/mol

Q: What about the “N (sites)” value [5] of the same compound?
A: 2.81 ± 0.1 sites

Q: And the TΔS [5]?
A: 3.3 ± 0.1 kcal/mol

Q: And the ΔG [5]?
A: -7.9 kcal/mol and -7.9 ± 0.2 kcal/mol

Q: And the ΔH [5]?
A: -4.4 ± 0.2 kcal/mol

Q: What about the “N (sites)” value [6] of the same compound?
A: 1.77 ± 0.1 sites

Q: And the TΔS [6]?
A: 4.8 ± 0.1 kcal/mol

Q: And the ΔG [6]?
A: -7.8 kcal/mol and -7.8 ± 0.1 kcal/mol

Q: And the Binding energy [7]?
A: -8.81 kcal/mol

Q: And the Binding energy [8]?
A: -8.66 kcal/mol

Q: What about the Binding energy [9] of the same compound?
A: -8.71 kcal/mol

Q: And the Binding energy [10]?
A: -9.05 kcal/mol

Q: And the “N (sites)” value [11]?
A: 1.7 ± 0.1 sites

Q: What about the TΔS [11] of the same compound?
A: 3.2 ± 0.2 kcal/mol

Q: And the ΔG [11]?
A: -7.6 kcal/mol and -7.6 ± 0.2 kcal/mol

Q: And the ΔH [11]?
A: -4.4 ± 0.3 kcal/mol

Q: And the Binding energy ([12]; Hep6 docked to wild type EDN, previous docking simulation data)?
A: -9.27 kcal/mol

Q: What about the Contribution ([12]; contribution of EDN H15 to Hep6 binding energy) of the same compound?
A: -0.34 kcal/mol

Q: And the Contribution ([12]; contribution of EDN K38 to Hep6 binding energy)?
A: -0.61 kcal/mol

Q: And the Contribution ([12]; contribution of EDN L130 to Hep6 binding energy)?
A: -0.08 kcal/mol

Q: And the Contribution ([12]; contribution of EDN N39 to Hep6 binding energy)?
A: -0.29 kcal/mol

Q: And the Contribution ([12]; contribution of EDN Q14 to Hep6 binding energy)?
A: -0.46 kcal/mol

Q: What about the Contribution ([12]; contribution of EDN Q34 to Hep6 binding energy) of the same compound?
A: -0.39 kcal/mol

Q: What about the Contribution ([12]; contribution of EDN Q40 to Hep6 binding energy) of the same compound?
A: -0.77 kcal/mol

Q: And the Contribution ([12]; contribution of EDN R36 to Hep6 binding energy)?
A: -0.56 kcal/mol

Q: And the Contribution ([12]; contribution of EDN R132 to Hep6 binding energy)?
A: -0.46 kcal/mol

Q: And the Contribution ([12]; contribution of EDN W7 to Hep6 binding energy)?
A: -0.34 kcal/mol

Q: What about the Contribution ([12]; contribution of EDN W10 to Hep6 binding energy) of the same compound?
A: -0.39 kcal/mol

Q: What about the Contribution ([12]; contribution of EDN residue printed H120 (row H129A) to Hep6 binding energy) of the same compound?
A: -0.22 kcal/mol

Q: And the “N (sites)” value [13]?
A: 2.45 ± 0.1 sites

Q: What about the TΔS [13] of the same compound?
A: 3.7 ± 0.1 kcal/mol

Q: And the ΔG [13]?
A: -7.5 kcal/mol and -7.5 ± 0.1 kcal/mol

Q: What about the ΔH [13] of the same compound?
A: -3.9 ± 0.2 kcal/mol

Q: What about the Binding energy [14] of the same compound?
A: -8.93 kcal/mol

Q: What about the Binding energy [15] of the same compound?
A: -9.19 kcal/mol

Q: And the Binding energy [16]?
A: -8.98 kcal/mol

Q: What about the Binding energy [17] of the same compound?
A: -8.81 kcal/mol

Q: What about the Binding energy [18] of the same compound?
A: -8.93 kcal/mol
